Earlier results as cited in patent US20080187585A1, “Prolonged-Release Compositions Comprising Torasemide and a Matrix-Forming Polymer” (FERRER INTERNACIONAL S.A., priority 2004, published 2008).

Legend:
[1] = not given; remark: listed apart in the source

## Cc1cccc(Nc2ccncc2S(=O)(=O)NC(=O)NC(C)C)c1 [torasemide, Torasemide]
After oral administration
  bioavailability: 80-90%
Oral administration
  kinetics: linear
Oral administration, man
  elimination half-life (t1/2): 3 to 4 h
  tmax (time to maximum plasma concentration): approximately 1 hour
[1]; after oral administration
  time of maximal effects on urine and electrolytes excretions: approximately 2 hours
[1]; doses from 2.5 to 20 mg
  dose-response relationship for urinary volume: linear dose-response relationship
